The record followed here is patent US20150218172A1, “Pyrrolo[2,3-D]Pyrimidine Tropomyosin-Related Kinase Inhibitors” (PFIZER LIMITED, priority 2012, published 2015).

T1 sequence (P04629 441-796): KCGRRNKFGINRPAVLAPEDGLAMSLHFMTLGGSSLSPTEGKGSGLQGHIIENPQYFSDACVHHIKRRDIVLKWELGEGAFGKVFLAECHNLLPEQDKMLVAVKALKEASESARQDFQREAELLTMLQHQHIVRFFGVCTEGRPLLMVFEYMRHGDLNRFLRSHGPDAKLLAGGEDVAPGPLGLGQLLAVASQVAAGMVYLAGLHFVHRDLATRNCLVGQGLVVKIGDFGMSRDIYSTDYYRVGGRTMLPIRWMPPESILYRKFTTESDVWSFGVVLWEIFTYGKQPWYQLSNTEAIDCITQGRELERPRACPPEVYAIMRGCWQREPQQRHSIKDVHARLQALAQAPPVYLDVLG

The test addresses T1, TrkA (Homo sapiens, UniProt P04629).
T1 construct: aa 441-796; His; purchased Invitrogen PV3144
The experiment in a line: Isolated TRK enzyme assay (HTRF KinEASE-TK kit), PV3144 TrkA enzyme assay. Type of test: biochemical. Conditions: PV3144 TrkA enzyme assay, recombinant His-tagged cytoplasmic domain aa 441-796, 4 nM enzyme, 40 uM ATP; arithmetic mean where more than one reading; read-out: Trka enzyme (IC50). In short, it runs like this: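 HTRF KinEASE tyrosine-phosphorylation readout (665/620 nm ratio) on a 1 uM biotinylated substrate after reaction with preactivated His-tagged TrkA cytoplasmic domain plus ATP and MgCl2/DTT buffer. Compound preincubated 20 min with enzyme; IC50 from log-concentration sigmoid curve, averaged where repeated.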
In general, IC50 refers to the concentration at which inhibition is half-maximal. As for `CC(C)n1cc(C(=O)c2ccnc(NC(=O)Cc3ccc(C#N)c(C(F)(F)F)c3)c2)c2cncnc21` [Example 71, 2-[4-cyano-3-(trifluoromethyl)phenyl]-N-(4-{[7-(propan-2-yl)-7H-pyrrolo[2,3-d]pyrimidin-5-yl]carbonyl}pyridin-2-yl)acetamide], the IC50 came to 49.2 nM.

Regarding `CC(C)n1cc(C(=O)c2ccnc(NC(=O)Cc3ccc(OC4CC4)cc3)c2)c2cncnc21` [Example 72, 2-[4-(cyclopropyloxy)phenyl]-N-(4-{[7-(propan-2-yl)-7H-pyrrolo[2,3-d]pyrimidin-5-yl]carbonyl}pyridin-2-yl)acetamide], the IC50 came to 117 nM.

Consider `CC(C)n1cc(C(=O)c2ccnc(NC(=O)Cc3ccc(F)cn3)c2)c2cncnc21` [Example 73, 2-(5-fluoropyridin-2-yl)-N-(4-{[7-(propan-2-yl)-7H-pyrrolo[2,3-d]pyrimidin-5-yl]carbonyl}pyridin-2-yl)acetamide], for which the concentration for half-maximal inhibition (IC50) is 58.2 nM.

As for `CC(C)n1cc(C(=O)c2ccnc(NC(=O)Cc3ccc(Cl)cn3)c2)c2cncnc21` [Example 74, 2-(5-chloropyridin-2-yl)-N-(4-{[7-(propan-2-yl)-7H-pyrrolo[2,3-d]pyrimidin-5-yl]carbonyl}pyridin-2-yl)acetamide], the IC50 worked out at 20.9 nM.

As to `Cc1cc(C(=O)c2cn(C(C)C)c3ncncc23)cc(NC(=O)Cc2ccccc2)n1` [Example 75, N-(6-methyl-4-{[7-(propan-2-yl)-7H-pyrrolo[2,3-d]pyrimidin-5-yl]carbonyl}pyridin-2-yl)-2-phenylacetamide], the IC50 was determined as 306 nM.

On to `Cc1cc(C(=O)c2cn(C(C)C)c3ncncc23)cc(NC(=O)Cc2ccc(C#N)cc2)n1` [Example 76, 2-(4-cyanophenyl)-N-(6-methyl-4-{[7-(propan-2-yl)-7H-pyrrolo[2,3-d]pyrimidin-5-yl]carbonyl}pyridin-2-yl)acetamide], for which the half-maximal inhibitory concentration (IC50) came to 315 nM.

With `Cc1cc(C(=O)c2cn(C(C)C)c3ncncc23)cc(NC(=O)Cc2ccc(F)cc2)n1` [Example 77, 2-(4-fluorophenyl)-N-(6-methyl-4-{[7-(propan-2-yl)-7H-pyrrolo[2,3-d]pyrimidin-5-yl]carbonyl}pyridin-2-yl)acetamide], the IC50 is 226 nM.

Turning to `Cc1cc(C(=O)c2cn(C(C)C)c3ncncc23)cc(NC(=O)Cc2ccc(C#N)c(C(F)(F)F)c2)n1` [Example 78, 2-[4-cyano-3-(trifluoromethyl)phenyl]-N-(6-methyl-4-{[7-(propan-2-yl)-7H-pyrrolo[2,3-d]pyrimidin-5-yl]carbonyl}pyridin-2-yl)acetamide], the IC50 was 118 nM.

Take `CC(C)n1cc(C(=O)c2cc(NC(=O)Cn3cc(C(F)(F)F)nn3)ccn2)c2cncnc21` [Example 79, N-(2-{[7-(propan-2-yl)-7H-pyrrolo[2,3-d]pyrimidin-5-yl]carbonyl}pyridin-4-yl)-2-[4-(trifluoromethyl)-1H-1,2,3-triazol-1-yl]acetamide]: the IC50 is 131 nM.

As to `CC(C)n1cc(C(=O)c2cc(NC(=O)Cc3cccc(S(C)(=O)=O)c3)ccn2)c2cncnc21` [Example 81, 2-[3-(methylsulfonyl)phenyl]-N-(2-{[7-(propan-2-yl)-7H-pyrrolo[2,3-d]pyrimidin-5-yl]carbonyl}pyridin-4-yl)acetamide], the IC50 worked out at 268 nM.

In the case of `CC(C)n1cc(C(=O)c2cc(NC(=O)Cn3cc(C4CC4)nn3)ccn2)c2cncnc21` [Example 82, 2-(4-cyclopropyl-1H-1,2,3-triazol-1-yl)-N-(2-{[7-(propan-2-yl)-7H-pyrrolo[2,3-d]pyrimidin-5-yl]carbonyl}pyridin-4-yl)acetamide], the IC50 came out at 76.1 nM.

On to `CC(C)n1cc(C(=O)c2cc(NC(=O)Cn3ccc(C4CC4)n3)ccn2)c2cncnc21` [Example 83, 2-(3-cyclopropyl-1H-pyrazol-1-yl)-N-(2-{[7-(propan-2-yl)-7H-pyrrolo[2,3-d]pyrimidin-5-yl]carbonyl}pyridin-4-yl)acetamide], for which the half-inhibitory concentration (IC50) was found to be 10.2 nM.

As for `Cc1cc(C(F)(F)F)nn1CC(=O)Nc1ccnc(C(=O)c2cn(C(C)C)c3nc(N)ncc23)c1` [Example 84, N-(2-{[2-amino-7-(propan-2-yl)-7H-pyrrolo[2,3-d]pyrimidin-5-yl]carbonyl}pyridin-4-yl)-2-[5-methyl-3-(trifluoromethyl)-1H-pyrazol-1-yl]acetamide], the IC50 was 27.1 nM.

Take `CC(C)n1cc(C(=O)c2cc(NC(=O)Cn3ccc(C(F)(F)F)n3)ccn2)c2cnc(N)nc21` [Example 85, N-(2-{[2-amino-7-(propan-2-yl)-7H-pyrrolo[2,3-d]pyrimidin-5-yl]carbonyl}pyridin-4-yl)-2-[3-(trifluoromethyl)-1H-pyrazol-1-yl]acetamide]: the IC50 stood at 54.1 nM.

`CC(C)n1cc(C(=O)c2cc(NC(=O)Cc3ccc(Cl)cn3)ccn2)c2cnc(N)nc21` [Example 86]: the half-maximal inhibitory concentration (IC50) was 35 nM.

As to `CC(C)n1cc(C(=O)c2cc(NC(=O)Cc3ccc(Cl)cc3)ccn2)c2cnc(N)nc21` [Example 87, N-(2-{[2-amino-7-(propan-2-yl)-7H-pyrrolo[2,3-d]pyrimidin-5-yl]carbonyl}pyridin-4-yl)-2-(4-chlorophenyl)acetamide], the half-inhibitory concentration (IC50) was found to be 6.43 nM.

`CC(C)n1cc(C(=O)c2cc(NC(=O)Cc3cccc(S(C)(=O)=O)c3)ccn2)c2cnc(N)nc21` [Example 88, N-(2-{[2-amino-7-(propan-2-yl)-7H-pyrrolo[2,3-d]pyrimidin-5-yl]carbonyl}pyridin-4-yl)-2-[3-(methylsulfonyl)phenyl]acetamide]: the IC50 was 75.9 nM.

`CC(C)n1cc(C(=O)c2cc(NC(=O)Cc3ccc(F)cn3)ccn2)c2cnc(N)nc21` [Example 89, N-(2-{[2-amino-7-(propan-2-yl)-7H-pyrrolo[2,3-d]pyrimidin-5-yl]carbonyl}pyridin-4-yl)-2-(5-fluoropyridin-2-yl)acetamide]: the concentration for half-maximal inhibition (IC50) came out at 76.3 nM.

For `CC(C)n1cc(C(=O)c2cc(NC(=O)Cn3cc(C(F)(F)F)nn3)ccn2)c2cnc(N)nc21` [Example 90, N-(2-{[2-amino-7-(propan-2-yl)-7H-pyrrolo[2,3-d]pyrimidin-5-yl]carbonyl}pyridin-4-yl)-2-[4-(trifluoromethyl)-1H-1,2,3-triazol-1-yl]acetamide], the IC50 turned out to be 18.5 nM.

Consider `CC(C)n1cc(C(=O)c2cc(NC(=O)Cn3cc(C4CC4)nn3)ccn2)c2cnc(N)nc21` [Example 91, N-(2-{[2-amino-7-(propan-2-yl)-7H-pyrrolo[2,3-d]pyrimidin-5-yl]carbonyl}pyridin-4-yl)-2-(4-cyclopropyl-1H-1,2,3-triazol-1-yl)acetamide], for which the IC50 amounted to 44.5 nM.

With `O=C(Cc1ccc(Cl)cc1)Nc1ccnc(C(=O)c2cn(C(CO)CO)c3ncncc23)c1` [Example 92, 2-(4-chlorophenyl)-N-(2-{[7-(1,3-dihydroxypropan-2-yl)-7H-pyrrolo[2,3-d]pyrimidin-5-yl]carbonyl}pyridin-4-yl)acetamide], the IC50 is 747 nM.

On to `O=C(Cc1ccc(C(F)(F)F)cc1)Nc1ccnc(C(=O)c2cn(C(CO)CO)c3ncncc23)c1` [Example 93, N-(2-{[7-(1,3-dihydroxypropan-2-yl)-7H-pyrrolo[2,3-d]pyrimidin-5-yl]carbonyl}pyridin-4-yl)-2-[4-(trifluoromethyl)phenyl]acetamide], for which the IC50 turned out to be 164 nM.

In the case of `O=C(Cc1ccc(C(F)(F)F)c(F)c1)Nc1ccnc(C(=O)c2cn(C(CO)CO)c3ncncc23)c1` [Example 94, N-(2-{[7-(1,3-dihydroxypropan-2-yl)-7H-pyrrolo[2,3-d]pyrimidin-5-yl]carbonyl}pyridin-4-yl)-2-[3-fluoro-4-(trifluoromethyl)phenyl]acetamide], the 50% inhibitory concentration (IC50) came to 922 nM.

As for `O=C(Cc1ccc(Cl)cc1Cl)Nc1ccnc(C(=O)c2cn(C(CO)CO)c3ncncc23)c1` [Example 95, 2-(2,4-dichlorophenyl)-N-(2-{[7-(1,3-dihydroxypropan-2-yl)-7H-pyrrolo[2,3-d]pyrimidin-5-yl]carbonyl}pyridin-4-yl)acetamide], the IC50 stood at 146 nM.

On to `O=C(Cc1cccc(C(F)(F)F)c1)Nc1ccnc(C(=O)c2cn(C(CO)CO)c3ncncc23)c1` [Example 96, N-(2-{[7-(1,3-dihydroxypropan-2-yl)-7H-pyrrolo[2,3-d]pyrimidin-5-yl]carbonyl}pyridin-4-yl)-2-[3-(trifluoromethyl)phenyl]acetamide], for which the IC50 was determined as 139 nM.

Consider `O=C(Cc1cccc(OC(F)(F)F)c1)Nc1ccnc(C(=O)c2cn(C(CO)CO)c3ncncc23)c1` [Example 97, N-(2-{[7-(1,3-dihydroxypropan-2-yl)-7H-pyrrolo[2,3-d]pyrimidin-5-yl]carbonyl}pyridin-4-yl)-2-[3-(trifluoromethoxy)phenyl]acetamide], for which the IC50 worked out at 876 nM.

`O=C(Cc1ccc(OC(F)(F)F)cc1)Nc1ccnc(C(=O)c2cn(C(CO)CO)c3ncncc23)c1` [Example 98, N-(2-{[7-(1,3-dihydroxypropan-2-yl)-7H-pyrrolo[2,3-d]pyrimidin-5-yl]carbonyl}pyridin-4-yl)-2-[4-(trifluoromethoxy)phenyl]acetamide]: the IC50 is 1500 nM.

For `O=C(Cc1ccc(Cl)c(Cl)c1)Nc1ccnc(C(=O)c2cn(C(CO)CO)c3ncncc23)c1` [Example 99, 2-(3,4-dichlorophenyl)-N-(2-{[7-(1,3-dihydroxypropan-2-yl)-7H-pyrrolo[2,3-d]pyrimidin-5-yl]carbonyl}pyridin-4-yl)acetamide], the IC50 was found to be 430 nM.

As to `O=C(Cc1ccc(Cl)cn1)Nc1ccnc(C(=O)c2cn(C(CO)CO)c3ncncc23)c1` [Example 100, 2-(5-chloropyridin-2-yl)-N-(2-{[7-(1,3-dihydroxypropan-2-yl)-7H-pyrrolo[2,3-d]pyrimidin-5-yl]carbonyl}pyridin-4-yl)acetamide], the IC50 was 2190 nM.

In the case of `O=C(Cn1ccc(C(F)(F)F)n1)Nc1ccnc(C(=O)c2cn(C(CO)CO)c3ncncc23)c1` [Example 101, N-(2-{[7-(1,3-dihydroxypropan-2-yl)-7H-pyrrolo[2,3-d]pyrimidin-5-yl]carbonyl}pyridin-4-yl)-2-[3-(trifluoromethyl)-1H-pyrazol-1-yl]acetamide], the IC50 is 247 nM.
